Results as given in patent US4380644A, “2-Oxoimidazolidine derivatives” (Tanabe Siyaku Co., Ltd., priority 1980, dated 1983).

Assays:
[1] = target: T1, angiotensin-converting enzyme (ACE) (Rattus norvegicus, UniProt P47820); assay: ACE-inhibitory activity in vivo (pressor response to angiotensin I); conditions: 1.0 mg/kg orally, anesthetized normotensive rats; for Duration of action: ACE inhibition; for inhibition at 1 mg/kg: rat, read-out: ACE-inhibitory activity (%), percentage inhibition of ACE-activity in vivo
T1 construct: Normotensive rats were anesthetized with urethane; from tissue; host or cells: endogenous enzyme of the whole living animal (normotensive rats, in vivo)
T1 sequence (P47820 36-1313): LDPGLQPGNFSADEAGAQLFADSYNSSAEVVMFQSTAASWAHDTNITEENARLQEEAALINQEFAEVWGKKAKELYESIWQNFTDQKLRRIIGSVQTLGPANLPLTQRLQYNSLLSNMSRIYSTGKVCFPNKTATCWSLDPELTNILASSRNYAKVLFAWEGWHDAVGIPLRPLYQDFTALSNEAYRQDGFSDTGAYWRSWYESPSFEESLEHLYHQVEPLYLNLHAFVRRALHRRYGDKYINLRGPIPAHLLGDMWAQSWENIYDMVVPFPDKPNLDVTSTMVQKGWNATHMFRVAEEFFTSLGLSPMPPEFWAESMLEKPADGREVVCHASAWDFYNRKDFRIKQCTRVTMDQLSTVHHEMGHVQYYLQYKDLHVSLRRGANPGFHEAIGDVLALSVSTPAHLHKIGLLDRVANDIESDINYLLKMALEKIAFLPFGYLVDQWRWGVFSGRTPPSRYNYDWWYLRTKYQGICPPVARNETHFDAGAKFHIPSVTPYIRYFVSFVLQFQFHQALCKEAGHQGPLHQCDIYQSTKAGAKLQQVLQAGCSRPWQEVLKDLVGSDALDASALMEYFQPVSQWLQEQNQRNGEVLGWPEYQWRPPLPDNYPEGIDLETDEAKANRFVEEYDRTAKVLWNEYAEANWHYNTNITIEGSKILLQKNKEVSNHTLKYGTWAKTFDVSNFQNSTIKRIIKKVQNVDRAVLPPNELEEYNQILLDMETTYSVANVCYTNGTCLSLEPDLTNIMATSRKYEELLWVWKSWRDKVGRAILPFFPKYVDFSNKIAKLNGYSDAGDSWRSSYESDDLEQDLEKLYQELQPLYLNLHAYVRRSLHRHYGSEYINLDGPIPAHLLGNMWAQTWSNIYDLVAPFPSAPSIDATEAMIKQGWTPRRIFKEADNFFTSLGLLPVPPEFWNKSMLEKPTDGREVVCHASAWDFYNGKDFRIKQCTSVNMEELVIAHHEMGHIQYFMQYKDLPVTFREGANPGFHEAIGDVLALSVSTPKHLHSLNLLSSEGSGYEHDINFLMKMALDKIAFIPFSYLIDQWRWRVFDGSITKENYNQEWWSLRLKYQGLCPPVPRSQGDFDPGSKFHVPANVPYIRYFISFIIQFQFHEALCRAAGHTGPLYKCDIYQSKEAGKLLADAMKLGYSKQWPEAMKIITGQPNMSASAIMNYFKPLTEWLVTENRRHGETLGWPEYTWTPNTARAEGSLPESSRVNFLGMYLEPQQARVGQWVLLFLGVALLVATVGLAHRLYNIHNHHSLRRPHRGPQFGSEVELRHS
Procedure: ACE-inhibitory activity in vivo:
Normotensive rats were anesthetized with urethane (1.5 g/kg, s.c.), and agiotensin I (75~300 ng/kg) was injected into the femoral vein of the rates. The pressor response to angiotensin I was measured with a pressure transducer connected to the carotid artery. Then, a test compound was administered orally thereto at a dose of 1.0 mg/kg, and angiotensin I (300 ng/kg) was further injected intravenously at intervals. The ACE-inhibitory activity of the test compound was estimated from the pressor responses to angiotensin I which were obtained before and after oral administration of the test compound.

mice = assay: Toxicity after oral administration to mice; type: in vivo; conditions: 3 g/kg orally
Procedure: For example, when (4S)-1-benzyl- 3-[(2S)-3-benzoylthio-2-methylpropionyl]-2-oxo-imidazolidine-4-carboxylic acid was administered orally to mice at a dose of 3 g/kg, no mouse died within 7 days after said administration.

[2] = test system: spontaneously hypertensive rats (SHR); assay: Hypotensive activity in SHR; type: in vivo; conditions: 50 mg/kg orally; for Decrease in blood pressure (-ΔmmHg): SHR fasted overnight, systolic blood pressure, tail plethysmography
Procedure: Hypotensive activity in SHR:
A test compound suspended in an aqueous carboxymethylcellulose solution was administered orally to spontaneously hypertensive rats (SHR) fasted overnight. The systolic blood pressure of the rats was measured by the tail plethysmographic technique (The Journal of Laboratory and Clicical Medicine 78 (1971), page 957). The hypotensive activity of the test compound was estimated from the decreased level of blood pressure.

Duration of action [1] [min]	inhibition at 1 mg/kg ([1]; angiotensin I 300 ng/kg i.v.) [%]	ACE-inhibitory activity (%), percentage inhibition of ACE-activity in vivo ([1]; angiotensin I 300 ng/kg i.v.)	SMILES	Mortality within 7 days after administration (mice)	Decrease in blood pressure (-ΔmmHg) [2] [mmHg]	Decrease in blood pressure (-ΔmmHg) ([2]; listed as (4S)-1-benzyl-3-[(2S)-3-benzoylthio-2-methylpropionyl]-2-oxo-imidazolidine-4-car)	Duration of action ([2]; hypotensive activity, SHR, 50 mg/kg) [h]	Duration of action (hours) ([2]; hypotensive activity, SHR, listed as (4S)-1-benzyl-3-[(2S)-3-benzoylthio-2-methylpropionyl]-2-oxo-imidazolidine-4-car, 50 mg/kg)	Duration of action ([2]; hypotensive activity, SHR) [h]
> 120	84		CCN1C[C@@H](C(=O)O)N(C(=O)[C@H](C)CSC(=O)c2ccccc2)C1=O [C2 H5 C6 H5, (4S)-1-ethyl-3-[(2S)-3-benzoylthio-2-methylpropionyl]-2-oxo-imidazolidine-4-carboxylic acid]						
> 120	88	about 90%	C[C@H](CSC(=O)c1ccccc1)C(=O)N1C(=O)N(C)C[C@H]1C(=O)O [CH3 C6 H5, (4S)-1-methyl-3-[(2S)-3-benzoylthio-2-methylpropionyl]-2-oxo-imidazolidine-4-carboxylic acid]						
> 120	67		CC(=O)SC[C@@H](C)C(=O)N1C(=O)N(C)C[C@H]1C(=O)O [CH3 CH3, (4S)-1-methyl-3-[(2S)-3-acetylthio-2-methylpropionyl]-2-oxo-imidazolidine-4-carboxylic acid]		37				> 6

SMILES	Duration of action [1] [min]	inhibition at 1 mg/kg ([1]; angiotensin I 300 ng/kg i.v.) [%]	ACE-inhibitory activity (%), percentage inhibition of ACE-activity in vivo ([1]; angiotensin I 300 ng/kg i.v.)	Mortality within 7 days after administration (mice)	Decrease in blood pressure (-ΔmmHg) [2] [mmHg]	Decrease in blood pressure (-ΔmmHg) ([2]; listed as (4S)-1-benzyl-3-[(2S)-3-benzoylthio-2-methylpropionyl]-2-oxo-imidazolidine-4-car)	Duration of action ([2]; hypotensive activity, SHR, 50 mg/kg) [h]	Duration of action (hours) ([2]; hypotensive activity, SHR, listed as (4S)-1-benzyl-3-[(2S)-3-benzoylthio-2-methylpropionyl]-2-oxo-imidazolidine-4-car, 50 mg/kg)	Duration of action ([2]; hypotensive activity, SHR) [h]
C[C@H](CSC(=O)c1ccccc1)C(=O)N1C(=O)N(Cc2ccccc2)C[C@H]1C(=O)O [C6 H5 CH2 C6 H5, (4S)-1-benzyl-3-[(2S)-3-benzoylthio-2-methylpropionyl]-2-oxo-imidazolidine-4-carboxylic acid]	> 120	76		no mouse died	44	about 44 mmHg	> 6	more than 6 hours	
